Source: patent publication US12655090B2, “Cyclopropylamide compounds against parasites in fish” (Intervet Inc., priority 2021, dated 2026)
Where two headings read alike, the source gives them in different places.

Experiments:
[1] = system: Mobile stages of sea lice (pre-adults, adults of Lepeophtheirus salmonis); test: Adult sea lice contact assay; settings: assessed after approximately 1 and 24 hours of continuous exposure, read-out: EC50 (sea lice inhibition, dead+damaged sea lice)
Protocol: Mobile stages of sea lice (i.e., pre-adults, adults of Lepeophtheirus salmonis) were exposed to seawater spiked with declining concentrations of a test compound (dissolved in a PEG sea-water mixture). Sea lice inhibition (% of dead+damaged sea lice) was assessed after approximately 1 and 24 hours of continuous exposure in comparison to a negative (solvent) control group.

[2] = system: Copepodids (juvenile sea lice stage of Lepeophtheirus salmonis); test: Juvenile sea lice contact assay; settings: approximately 24 hours continuous exposure in seawater, read-out: Sea lice inhibition (% of dead+damaged copepodids); for inhibition at 0.01 µM: test concentration 10 nM; for inhibition at 0.1 µM: test concentration 100 nM; for inhibition at 10 pM: test concentration 0.01 nM; for inhibition at 0.001 µM: test concentration 1 nM; for inhibition at 0.0001 µM: test concentration 0.1 nM
Protocol: Copepodids (juvenile sea lice stage of Lepeophtheirus salmonis) were exposed to seawater spiked with declining concentrations of a test compound (dissolved in a DMSO sea-water mixture). Sea lice inhibition (% of dead+damaged copepodids) was assessed after approximately 24 hours of continuous exposure. The vitality of used parasites was confirmed in a negative (solvent) control group.

[3] = system: Lepeophtheirus salmonis sea lice on salmon (Salmo salar); test: Salmon in vivo efficacy trial using gavage administration; settings: po
Protocol: Salmon (Salmo salar) were treated once orally by gavage at a dose of 5 mg/kg bodyweight per fish (Day 0). As formulation DMSO 5%/fish oil 95% was used. Salmon of the negative control group received only the excipients of the formulation. The fish were infested with Lepeophtheirus salmonis copepodids twice before treatment (i.e., around day −28 and day −3) and once after treatment (i.e., day 17). […] Around day 28 (end of animal phase), fish were euthanized, and lice on each fish were classified ((pre-)adult or juvenile stage) and counted. […] Efficacy is expressed as a % reduction of sea lice in treated groups versus a control group, using the Abbott's formula.

[4] = 168 h, read-out: therapeutic efficacy against (pre-)adult sea lice (% reduction vs control, Abbott's formula), once orally by gavage 5 mg/kg bodyweight, day -28 infestation, counted at day 7
[5] = 672 h, read-out: therapeutic efficacy against juvenile sea lice (% reduction vs control, Abbott's formula), once orally by gavage 5 mg/kg bodyweight, day -3 infestation, counted around day 28

O=C(NC1CC(F)(F)C1)c1cc(NC(=O)C2C(c3cccc(C(F)(F)F)c3)C2(Cl)Cl)ccc1Cl (racemic) [Compound 1508]
EC50 [1]: 1 to 10 nM
inhibition at 0.01 µM [2]: 100%

Cc1cc(C2C(C(=O)Nc3ccc(Cl)c(C(=O)NC4(C#N)CC4)c3)C2(Cl)Cl)cc(Cl)c1Cl (racemic) [Compound 1514]
EC50 [1]: 10 to 25 nM
inhibition at 0.1 µM [2]: 100%

N#Cc1cc(Cl)cc(C2C(C(=O)Nc3ccc(Cl)c(C(=O)NC4(C#N)CC4)c3)C2(Cl)Cl)c1 (racemic) [Compound 1532]
EC50 [1]: 10 to 25 nM
inhibition at 0.1 µM [2]: 100%

N#CC1(NC(=O)c2cc(NC(=O)C3C(c4cc(Cl)cc(C(F)F)c4)C3(Cl)Cl)ccc2Cl)CC1 (racemic) [Compound 1545]
EC50 [1]: 10 to 25 nM
inhibition at 0.1 µM [2]: 100%

N#CC1(NC(=O)c2cc(NC(=O)C3C(c4ccc(Cl)c(C(F)F)c4)C3(Cl)Cl)ccc2Cl)CC1 (racemic) [Compound 1546]
EC50 [1]: 10 to 25 nM
inhibition at 0.1 µM [2]: 100%

N#CC1(NC(=O)c2cc(NC(=O)C3C(c4cc(F)cc(C(F)F)c4)C3(Cl)Cl)ccc2Cl)CC1 (racemic) [Compound 1547]
EC50 [1]: 1 to 10 nM
inhibition at 0.1 µM [2]: 100%

N#CC1(NC(=O)c2cc(NC(=O)C3C(c4ccc(C(F)F)c(Cl)c4)C3(Cl)Cl)ccc2Cl)CC1 (racemic) [Compound 1548]
EC50 [1]: 10 to 25 nM

O=C(NCCCCl)c1cc(NC(=O)C2C(c3ccc(F)c(Cl)c3)C2(Cl)Cl)ccc1F (racemic) [Compound 1563]
inhibition at 10 pM [2]: 100%

O=C(NCC(F)(F)F)c1cc(NC(=O)C2C(c3ccc(F)c(Cl)c3)C2(Cl)Cl)cc(F)c1Cl (racemic) [Compound 1565]
inhibition at 10 pM [2]: 100%

Cc1c(Cl)cc(NC(=O)C2C(c3ccc(F)c(Cl)c3)C2(Cl)Cl)cc1C(=O)NCCCCl (racemic) [Compound 1566]
inhibition at 0.01 µM [2]: 100%

Cc1c(F)cc(NC(=O)C2C(c3ccc(F)c(Cl)c3)C2(Cl)Cl)cc1C(=O)NCC(F)(F)F (racemic) [Compound 1567]
inhibition at 0.001 µM [2]: 100%

O=C(NCC(F)(F)F)c1cc(NC(=O)C2C(c3ccc(F)c(Cl)c3)C2(Cl)Cl)cc(Cl)c1F (racemic) [Compound 1570]
inhibition at 0.01 µM [2]: ≥ 80%

O=C(NCCC(F)(F)F)c1c(F)ccc(NC(=O)C2C(c3ccc(F)c(Cl)c3)C2(Cl)Cl)c1F (racemic) [Compound 1573]
inhibition at 0.01 µM [2]: 100%

O=C(NCCCCl)c1cc(NC(=O)C2C(c3ccc(F)c(Cl)c3)C2(Cl)Cl)cc(F)c1F (racemic) [Compound 1574]
inhibition at 0.001 µM [2]: 80%

CC(NC(=O)c1cc(NC(=O)C2C(c3cc(F)c(F)c(F)c3)C2(Cl)Cl)ccc1Cl)C(F)(F)F (racemic) [Compound 1602]
EC50 [1]: 10 to 25 nM
inhibition at 0.01 µM [2]: 100%

O=C(NC1CC(F)(F)C1)c1cc(NC(=O)C2C(c3cc(Cl)cc(Cl)c3)C2(Cl)Cl)ccc1Cl (centres unmarked) [Compound 1531]
inhibition at 0.01 µM [2]: 100%

O=C(NCC(F)(F)F)c1cc(NC(=O)[C@H]2[C@H](c3ccc(F)c(F)c3)C2(Cl)Cl)ccc1Cl [Compound 1584]
EC50 [1]: ≤ 1 nM
inhibition in vivo at 5 mg/kg [3, 4]: 100%
inhibition at 0.0001 µM [2]: 100%

N#CC1(NC(=O)c2cc(NC(=O)[C@H]3[C@H](c4ccc(Br)c(Cl)c4)C3(Cl)Cl)ccc2Cl)CC1 [Compound 1585]
EC50 [1]: 1 to 10 nM
inhibition in vivo at 5 mg/kg [3, 4]: 100%
inhibition in vivo at 5 mg/kg [3, 5]: 100%
inhibition at 0.1 µM [2]: 100%

N#CC1(NC(=O)c2cc(NC(=O)[C@H]3[C@H](c4ccc(C(F)F)c(F)c4)C3(Cl)Cl)ccc2Cl)CC1 [Compound 1587]
EC50 [1]: ≤ 1 nM
inhibition in vivo at 5 mg/kg [3, 4]: 80%
inhibition at 0.1 µM [2]: 100%

N#CC1(NC(=O)c2cc(NC(=O)C3C(c4ccc(F)c(Cl)c4)C3(Cl)Cl)cc(F)c2F)CC1 (centres unmarked) [Compound 1589]
EC50 [1]: ≤ 1 nM
inhibition at 0.001 µM [2]: 80%

O=C(NCC(F)(F)F)c1cc(NC(=O)C2C(c3ccc(F)c(F)c3)C2(Cl)Cl)ccc1Cl (centres unmarked) [Compound 1591]
inhibition at 0.1 µM [2]: 100%

O=C(NCC(F)(F)F)c1cc(NC(=O)[C@H]2[C@H](c3cc(Cl)cc(Cl)c3)C2(Cl)Cl)ccc1Cl [Compound 1592]
EC50 [1]: ≤ 1 nM
inhibition in vivo at 5 mg/kg [3, 4]: 100%
inhibition in vivo at 5 mg/kg [3, 5]: 100%
inhibition at 0.0001 µM [2]: 80%

O=C(NCC(F)(F)F)c1cc(NC(=O)[C@H]2[C@H](c3cc(F)c(F)c(F)c3)C2(Cl)Cl)ccc1Cl [Compound 1593]
EC50 [1]: ≤ 1 nM
inhibition in vivo at 5 mg/kg [3, 4]: 100%
inhibition in vivo at 5 mg/kg [3, 5]: 80%
inhibition at 10 pM [2]: 100%

O=C(NC1CC(F)(F)C1)c1cc(NC(=O)[C@H]2[C@H](c3cccc(C(F)(F)F)c3)C2(Cl)Cl)ccc1Cl [Compound 1601]
EC50 [1]: 1 to 10 nM
inhibition in vivo at 5 mg/kg [3, 4]: 100%
inhibition in vivo at 5 mg/kg [3, 5]: 100%
inhibition at 0.001 µM [2]: 100%

CC(C)(NC(=O)c1cc(NC(=O)C2C(c3cc(F)c(F)c(F)c3)C2(Cl)Cl)ccc1Cl)C(F)(F)F (centres unmarked) [Compound 1603]
EC50 [1]: 10 to 25 nM
inhibition at 0.01 µM [2]: ≥ 80%

O=C(NC1(C(F)(F)F)CC1)c1cc(NC(=O)C2C(c3cc(F)c(F)c(F)c3)C2(Cl)Cl)ccc1Cl (centres unmarked) [Compound 1604]
EC50 [1]: 10 to 25 nM
inhibition at 0.01 µM [2]: 100%

N#CC1(NC(=O)c2cc(NC(=O)C3C(c4cc(Cl)cc(Cl)c4)C3(Cl)Cl)ccc2F)CC1 (centres unmarked) [Compound 1605]
EC50 [1]: ≤ 1 nM
inhibition in vivo at 5 mg/kg [3, 4]: 100%
inhibition in vivo at 5 mg/kg [3, 5]: 100%
inhibition at 10 pM [2]: 100%

N#CC1(NC(=O)c2cc(NC(=O)[C@H]3[C@H](c4ccc(Cl)c(F)c4)C3(Cl)Cl)ccc2Cl)CC1 [Compound 1606]
EC50 [1]: 10 to 25 nM
inhibition in vivo at 5 mg/kg [3, 4]: 100%
inhibition in vivo at 5 mg/kg [3, 5]: 100%
inhibition at 0.1 µM [2]: 100%

N#CC1(NC(=O)c2cc(NC(=O)[C@H]3[C@H](c4ccc(F)c(Cl)c4)C3(Cl)Cl)ccc2Cl)CC1 [Compound 1608]
EC50 [1]: ≤ 1 nM
inhibition in vivo at 5 mg/kg [3, 4]: 100%
inhibition in vivo at 5 mg/kg [3, 5]: 100%
inhibition at 10 pM [2]: 100%

O=C(NC1CC(F)(F)C1)c1cc(NC(=O)C2C(c3cccc(C(F)(F)F)c3)C2(Cl)Cl)ccc1Cl (centres unmarked) [Compound 1611]
inhibition at 0.1 µM [2]: 100%

N#CC1(NC(=O)c2cc(NC(=O)C3C(c4cc(C(F)(F)F)cc(C(F)(F)F)c4)C3(Cl)Cl)ccc2Cl)CC1 (centres unmarked) [Compound 1612]
EC50 [1]: 10 to 25 nM
inhibition at 0.01 µM [2]: 100%

O=C(NCC(F)(F)F)c1cc(NC(=O)C2C(c3cc(C(F)(F)F)cc(C(F)(F)F)c3)C2(Cl)Cl)ccc1Cl (centres unmarked) [Compound 1613]
EC50 [1]: ≤ 1 nM
inhibition at 0.01 µM [2]: 100%

C#CCNC(=O)c1cc(NC(=O)C2C(c3cc(C(F)(F)F)cc(C(F)(F)F)c3)C2(Cl)Cl)ccc1Cl (centres unmarked) [Compound 1614]
EC50 [1]: ≤ 1 nM
inhibition at 0.001 µM [2]: 80%

N#CC1(NC(=O)c2cc(NC(=O)C3C(c4cc(C(F)(F)F)cc(C(F)(F)F)c4)C3(Cl)Cl)cc(F)c2F)CC1 (centres unmarked) [Compound 1615]
EC50 [1]: 1 to 10 nM
inhibition at 0.01 µM [2]: 100%

CC1(NC(=O)c2cc(NC(=O)C3C(c4cc(Cl)cc(Cl)c4)C3(Cl)Cl)cc(F)c2F)CC1 (centres unmarked) [Compound 1616]
inhibition at 0.1 µM [2]: 100%

O=C(NC1(C(F)(F)F)CC1)c1cc(NC(=O)C2C(c3cc(Cl)cc(Cl)c3)C2(Cl)Cl)ccc1F (centres unmarked) [Compound 1627]
inhibition at 0.1 µM [2]: ≥ 80%

C#CCNC(=O)c1cc(NC(=O)C2C(c3cc(Cl)cc(Cl)c3)C2(Cl)Cl)cc(F)c1F (centres unmarked) [Compound 1629]
inhibition at 0.1 µM [2]: 100%

C#CCNC(=O)c1cc(NC(=O)C2C(c3cc(Cl)cc(Cl)c3)C2(Cl)Cl)ccc1F (centres unmarked) [Compound 1631]
inhibition at 0.1 µM [2]: 100%
